According to patent US12070457B2, “Substituted pyridines, pyridazines, pyrimidines, and 1,2,3-triazines as bruton's tyrosine kinase inhibitors” (HUTCHISON MEDIPHARMA LIMITED, priority 2020, dated 2024):
pIC50: −log10 of the molar value.

Experiments:
[1] = molecular target: BTK recombinant protein (Homo sapiens (Human), UniProt Q06187); experiment: Determination of biochemical BTK (Z'-LYTE kinase assay)
From the text: Example 2 Determination of Biochemical BTK
(§1) 1. Reagents and Materials
• BTK recombinant protein: Invitrogen, Cat #PV3363; • Z′-LYTE® kinase test kit-tyrosine 1 peptide: Invitrogen, Cat #PV3190; • 384-well low-flange black flat-bottomed polystyrene NBS microplate, no lid, no sterilization: Corning, Cat #3575; • 96-well polystyrene conical-bottomed MicroWell™ plate, sealed with a lid: Thermo Scientific™ Nunc™, Cat #277143; • Envision multi-mode plate reader: PerkinElmer; • Mixmate® shaker: Eppendorf; • TS-2102 shaking incubator: TENSUC; 2. Methods
Z′-LYTE® biochemical assay employs a fluorescence resonance energy transfer (FRET)-based, coupled-enzyme format and is based on the differential sensitivity of phosphorylated and non-phosphorylated peptides to proteolytic cleavage. Both ends of the short peptide substrate are labeled with two fluorescent groups to form a FRET paired combination. In the primary reaction (the Kinase Reaction), the kinase transfers the γ-phosphate of ATP to a single […] residue on the short peptide substrate. In the secondary reaction (the development reaction), the non-phosphorylated short peptides were recognized and cleaved by a site-specific protease (the development reagent). Phosphorylated short peptides can resist such cleavage. Cleavage of short peptides can disrupt the donor (such as coumarin) and receptor fluorophores (fluorescein) on the short peptides, while the phosphorylated short peptides can maintain FRET. The calculation method of the ratio is as follows, and the ratio of the respective emission signals generated by the donor fluorophores emitted (after excitation at 400 nm) to the receptors is calculated. Emission signal ratio=emitted light by coumarin (445 nm)/emitted light by fluorescein (520 nm). If the FRET short peptide is phosphorylated (such as no kinase inhibitor), the emitted light ratio will remain in a lower level. If the FRET short peptide is non-phosphorylated (such as kinase inhibitor), the emitted light ratio will be in a higher level. In this way, the inhibitory effects of different compound inhibitors on BTK kinase activity would be distinguished.
The experiment were carried out according to the instructions of the Z′-LYTE® kinase test kit-tyrosine 1 peptide. Reagent preparation: 1.33× kinase buffer: 5× kinase buffer was diluted with water to 1.33× kinase buffer; an enzyme solution: the kinase was dissolved in 1.33× kinase buffer with the final working concentration being 3.32 nM; a short peptide solution: a short peptide stock solution (1 mM dissolved in DMSO) was dissolved in 1.33× kinase buffer with the final working concentration being 2 μM; Z′-LYTE Tyr01 phosphorylated short peptide solution, 0.6 μl of stock solution (1 mM dissolved in DMSO) was dissolved in 149.4 μl of 1.33× kinase buffer; an ATP solution: an ATP stock solution (10 mM aqueous solution) was dissolved in 1.33× kinase buffer with the final working concentration being 32 μM; a color-developing solution: color-developing solution B was dissolved in color-developing buffer with the final working concentration being 1× color-developing solution; 4× compound preparation: the compound was diluted in 3-fold gradient concentration to finally obtain 4% DMSO aqueous solution containing different concentrations of the compound, with the final working concentration being 3000, 1000, 333.33, 111.11, 37.04, 12.35, 4.12, 1.37 nM, 8 concentration points in total.
Specific steps of the experiment: In the experiment, there were three control groups, each with 8 replicate wells, which were C1 100% inhibition group (no ATP), C2 0% inhibition group (with ATP), and C3 100% phosphorylation group, respectively. 2.5 μl of serially diluted compound was added to each well of a 384-well plate, with double replicate wells, and 4% DMSO solution was added to wells C1, C2, and C3. […]

[2] = molecular target: phosphorylated BTK in Ramos cells (Homo sapiens (Human), UniProt Q06187); experiment: Determination of phosphorylated BTK in Ramos cells (BTK phospho-Y223 HTRF); type: cell-based
Protocol: Determination of Phosphorylated BTK in Ramos Cells
as §1
• Ramos cells: Ramos cells were purchased from American Standard Biological Collection Center ATCC Cell Bank, PRMI 1640 medium containing L-glutamine, 1.5 g/L of sodium bicarbonate, 2.383 g/L of HEPES solution, 0.11 g/L of sodium pyruvate and 4.5 g/L of glucose was used, added 10% fetal bovine serum FBS, and placed in a 5% C02, 37° C. cell incubator for normal culture; • PRMI 1640 medium: GIBCO, Cat #A10491-01; • Fetal bovine serum (FBS): GIBCO, Cat #100100-147; • Hank's balanced salt solution (HBSS): GIBCO, Cat #14025-092; • Immunoglobulin M (IgM): Jackson Immuno, Cat #109-006-129; • 3% hydrogen peroxide (3% H2O2): Sigma, Cat #88597-100 ML-F; • Phosphorylated BTK HTRF detection kit (BTK phospho-Y223 HTRF kit): Cisbio, Cat #63ADK017PEH; • Microwell plate reader: Envision, Perkin Elmer; • 384-well plate CulturPlate™384: Perkin Elmer, Cat #6007680 • 96-well plate: Corning, Cat #3799. 2. Methods
Ramos cells were starved in PRMI 1640 medium with 1% FBS for 2 hours. The starved Ramos cells were diluted with Hank's balanced salt solution to 5.0×10^6 cells/ml, seeded in a 96-well plate with 20 μL/well (1.0×10^5 cells/well), and cultured in a 5% CO2, 37° C. cell incubator. […]
The 384 well plate incubated overnight in the constant temperature incubator was taken out to detect the luminescence signal using the Envision microwell plate reader at the […]. The reading value at 665 nm/615 nm of each well multiplied by 104 was used as the signal value of each well.
The average signal value of the wells supplemented with the mixed solution of human immunoglobulin M (final concentration was 10 μg/mL) and hydrogen peroxide (final concentration was 3.3 mM) without the test compound was regarded as the high value, and the average signal value of the wells without immunoglobulin M stimulation and without the test compound was regarded as the low value. According to the signal value in each well, the inhibition ratio (%) of each concentration of compounds was calculated, and the 205 model in XL-Fit 5.3 software (ID Business Solutions Limited) was used to obtain an IC50 value. […]

[3] = Stability test in liver microsomes (rat); type: in vitro ADME; settings: 1 μM compound; for stability in rat liver microsomes compared with reference GDC-0853: 0.5 mg/mL liver microsomes, 30 minutes incubation; for RLM, percentage of remaining compound after 30 minutes of incubation: rat liver microsomes
From the text: (§2) Example 5 Stability Test in Liver Microsomes
(§3) Both male CD-1 mouse pooled liver microsomes and male SD rat pooled liver microsomes were purchased from BioreclamationIVT Corporation, USA.
(§4) Phenacetin, glucose-6-phosphate dehydrogenase (G-6-PDH) and nicotinamide adenine dinucleotide phosphate (NADP) were all purchased from Sigma-Aldrich Corporation, USA. Glucose-6-phosphate (G-6-P) was purchased from Shanghai Eybridge Chemical Technology Co., Ltd.
(§5) Ten mM test compound stock solution: a certain amount of test compound was weighed, and dissolved with an appropriate volume of DMSO to prepare a stock solution with a concentration of 10 mM for use.
(§6) Reaction stopping solution: an appropriate amount of internal standard compound phenacetin was dissolved in acetonitrile to prepare a reaction stopping solution with a concentration of 1000 ng/mL for use at room temperature.
(§7) The test compound stock solution was diluted with an organic solvent (usually a mixture of acetonitrile, methanol and water with various ratios, depending on the solubility of the compound, if necessary, 1 N hydrochloric acid or 1 N sodium hydroxide would be added to facilitate solubilization) to the 0.1 mM (the final concentration of the compound in the reaction system was 1 μM) and the concentration percentage of the organic solvents in the incubation system no more than 1% (wherein the percentage of DMSO was required to be no more than 0.1%). An appropriate amount of 100 mM NADP, 500 mM G-6-P and 100 Unit/mL G-6-PDH were mixed and diluted with ultrapure water (the final system contains 1 mM NADP, 5 mM G-6-P and 1 Unit/mL G-6-PDH), pre-incubated in a 37° C. water bath for 10 minutes and then placed on ice for use as a NADPH regeneration solution. 20 mg/mL liver microsomes solution and 200 mM phosphate buffer was mixed, and diluted with ultrapure water to give a liver microsomes solution containing 2.5 mg/mL liver microsomes (the final concentration of the reaction system is 0.5 mg/mL) and 50 mM phosphate buffer. The diluted liver microsomes solution was mixed with 0.1 mM compound solution, a mixture of 100 mM EDTA, 300 mM MgCl2 solution, 200 mM phosphate buffer (the final system was 3 mM MgCl2, 1 mM EDTA and 50 mM phosphate buffer) and water in an appropriate volume was added. Finally, the NADPH regeneration solution was added, then the reaction solution was placed in a 37° C. water bath to start the reaction (the reaction time was 30 minutes), and the reaction was stopped by adding the ice-cold acetonitrile reaction stopping solution containing the internal standard. The 0-minute sample was not incubated in a 37° C. water bath, and its difference from the 30-minute sample further lies in that the ice-cold acetonitrile reaction stopping solution containing the internal standard was added first, and then the NADPH regeneration solution was added. The sample added with the reaction stopping internal standard solution was vortexed and mixed well, and then centrifuged at 4400 rpm for 10 minutes. The supernatant was taken and diluted ten times with 50% methanol for LC-MS/MS analysis.
(§8) LC-MS/MS was used to determine the concentration of the compound in the sample. The percentage of the remaining compound after 30 minutes of incubation comparing with that in the 0-minute sample was calculated using the peak area ratio of the compound to the internal standard as an indicator, to evaluate the metabolic stability of the compound.
(§9) Instrument: API4500, API4000 or LTQ Mass Spectrometer; the liquid phase is UHPLC system (Shimadzu LC-30 AD, model Nexra X2) including liquid delivery unit, column thermostat, detector and autosampler; or Agilent 1200 Binary Pump series HPLC and CTC Autosampler.
(§10) Chromatographic column: Waters XSELECT Hss T3 C18 (2.5 μm, 2.1×50 mm) or […] (5 μm, 2.0×50 mm)
(§11) Mobile phase: • A: water with 0.1% FA (formic acid) (with or without 0.1% ACN (acetonitrile)) • B: acetonitrile with 0.1% FA (formic acid).

[4] = Stability test in liver microsomes (mouse); type: in vitro ADME; settings: 1 μM compound; for stability in mouse liver microsomes compared with reference GDC-0853: 0.5 mg/mL liver microsomes, 30 minutes incubation; for MLM, percentage of remaining compound after 30 minutes of incubation: mouse liver microsomes
From the text: as §2, §3, §4, §5, §6, §7, §8, §9, §10, §11

BTK recombinant protein, sequence (Q06187 whole entry): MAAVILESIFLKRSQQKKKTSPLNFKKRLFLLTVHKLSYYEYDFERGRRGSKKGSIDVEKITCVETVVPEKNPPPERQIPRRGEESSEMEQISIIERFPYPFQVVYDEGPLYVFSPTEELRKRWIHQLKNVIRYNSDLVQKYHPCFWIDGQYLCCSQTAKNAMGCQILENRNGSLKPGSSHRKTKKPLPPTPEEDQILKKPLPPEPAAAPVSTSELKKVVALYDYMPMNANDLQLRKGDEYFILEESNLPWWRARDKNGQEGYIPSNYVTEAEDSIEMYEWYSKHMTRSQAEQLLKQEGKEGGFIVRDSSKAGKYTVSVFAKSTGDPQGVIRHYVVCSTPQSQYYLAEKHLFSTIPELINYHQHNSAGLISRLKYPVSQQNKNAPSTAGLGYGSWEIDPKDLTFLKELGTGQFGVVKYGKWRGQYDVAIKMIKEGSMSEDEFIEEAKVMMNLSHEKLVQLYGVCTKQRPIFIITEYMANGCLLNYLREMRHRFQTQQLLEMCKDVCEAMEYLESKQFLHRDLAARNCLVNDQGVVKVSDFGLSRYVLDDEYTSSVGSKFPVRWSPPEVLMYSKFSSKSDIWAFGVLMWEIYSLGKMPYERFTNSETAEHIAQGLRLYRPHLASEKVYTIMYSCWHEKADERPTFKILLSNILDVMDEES
phosphorylated BTK in Ramos cells, sequence (Q06187 whole entry): as above

## CCn1cc(Nc2cc(-c3ccnc(-n4ccn5c6c(cc5c4=O)CC(C)(C)C6)c3CO)cn(C)c2=O)nn1 [Compound 24]
[1]
  pIC50: 8.52

## C[C@H]1CN(C2COC2)CCN1c1ccc(Nc2nc(-c3ccnc(-n4ccn5c6c(cc5c4=O)CC(C)(C)C6)c3CO)cn(C)c2=O)nc1 [Compound 20]
[1]
  pIC50: 7.57

## CC1c2cc(Nc3cc(-c4ccnc(-n5ccn6c7c(cc6c5=O)CCC7)c4CO)cn(C)c3=O)nn2CCN1C1COC1 (racemic) [Compound 144]
[1]
  pIC50: 7.74
[2]
  pIC50: 7.42

## C[C@H]1CN(C2COC2)CCN1c1ccc(Nc2cc(-c3ccnc(-n4ccn5c6c(cc5c4=O)CC(C)(C)C6)c3CO)nn(C)c2=O)nc1 [Compound 22]
[3]
  stability in rat liver microsomes compared with reference GDC-0853: better than that of the reference GDC-0853
  RLM, percentage of remaining compound after 30 minutes of incubation: 95.6%
[1]
  pIC50: 8.00
[4]
  stability in mouse liver microsomes compared with reference GDC-0853: better than that of the reference GDC-0853
  MLM, percentage of remaining compound after 30 minutes of incubation: 83.4%

## Cn1cc(-c2ccnc(-n3ccn4c5c(cc4c3=O)CC(C)(C)C5)c2CO)cc(Nc2ccc(N3CCN(C4COC4)CC3=O)cn2)c1=O [Compound 34]
[3]
  stability in rat liver microsomes compared with reference GDC-0853: better than that of the reference GDC-0853
  RLM, percentage of remaining compound after 30 minutes of incubation: ~100%
[1]
  pIC50: 8.30
[4]
  stability in mouse liver microsomes compared with reference GDC-0853: better than that of the reference GDC-0853
  MLM, percentage of remaining compound after 30 minutes of incubation: 89.5%

## COCCN1CCn2nc(Nc3cc(-c4ccnc(-n5ccn6c7c(cc6c5=O)CCC7)c4CO)cn(C)c3=O)cc2C1C (racemic) [Compound 145]
[1]
  pIC50: 7.48
[2]
  pIC50: 7.80

## COCC(C)n1cc(Nc2nc(-c3ccnc(-n4ccn5c6c(cc5c4=O)CC(C)(C)C6)c3CO)cn(C)c2=O)nn1 (centres unmarked) [Compound 42]
[1]
  pIC50: 6.57

## Cn1cc(-c2ccnc(-n3ccn4c5c(cc4c3=O)CC(C)(C)C5)c2CO)cc(Nc2ccc(N3CCN4CCOCC4C3)cn2)c1=O (racemic) [Compound 232]
[1]
  pIC50: 7.92
[2]
  pIC50: 8.10

## CCn1cc(Nc2cc(-c3ccnc(-n4ccn5c6c(cc5c4=O)CC(C)(C)C6)c3CO)nn(C)c2=O)nn1 [Compound 25]
[1]
  pIC50: 8.10
